Source: patent US20220144854A1, “MACROCYCLIC COMPOUNDS” (ZENO MANAGEMENT, INC., priority 2019, published 2022)

test system: NCI-H929 (ATCC CRL-9068) cells; test: NCI-H929 cell proliferation assay (CellTiter-Glo); type: cell-based; conditions: 72 h of compound treatment
Procedure: Cell proliferation was measured using the CellTiter-Glo® Luminescent Cell Viability Assay. The assay involved the addition of a single reagent (CellTiter-Glo® Reagent) directly to cells cultured in serum-supplemented medium.
Each compound evaluated was prepared as a DMSO stock solution (10 mM). Compounds were tested in duplicate on each plate, with a 10-point serial dilution curve (1:3 dilution). Compound treatment ([…]) was added from the compound dilution plate to the cell plate. The highest compound concentration was 10 μM (final), with a 0.1% final DMSO concentration. Plates were then incubated at 37° C., 5% CO2. After 72 h of compound treatment, cell plates were equilibrated at rt for approximately 30 mins. An equi-volume amount of CellTiter-Glo® Reagent (40 μL) was added to each well. Plates were mixed for 2 mins on an orbital shaker to induce cell lysis and then incubated at rt for 10 mins to stabilize the luminescent signal. Luminescence was recorded using an Envision plate reader according to CellTiter-Glo protocol. IC50 of each compound was calculated using GraphPad Prism by nonlinear regression analysis.

Row | SMILES | IC50 [nM]
1 | COc1ccc(Cn2nc3c(c2C)-c2c(Cl)ccc4c(c(C(=O)O)n(C)c24)CCCOc2cc(cc4ccccc24)SCc2cc(nn2C(C)C)CSC3)cc1 (single isomer, unassigned) [Example 8A, (Z)-1^6-Chloro-6^1-isopropyl-2^1-(4-methoxybenzyl)-1^1,2^5-dimethyl-1^1H,2^1H,6^1H-10-oxa-4,8-dithia-1(7,3)-indola-2(4,3),6(3,5)-dipyrazola-9(3,1)-naphthalenacyclotridecaphane-1^2-carboxylic acid] | > 1000
2 | COc1ccc(Cn2nc3c(c2C)-c2c(Cl)ccc4c(c(C(=O)O)n(C)c24)CCCOc2cc(cc4ccccc24)SCc2cc(nn2C(C)C)CSC3)cc1 (single isomer, unassigned) [Example 8B, (Z)-1^6-Chloro-6^1-isopropyl-2^1-(4-methoxybenzyl)-1^1,2^5-dimethyl-1^1H,2^1H,6^1H-10-oxa-4,8-dithia-1(7,3)-indola-2(4,3),6(3,5)-dipyrazola-9(3,1)-naphthalenacyclotridecaphane-1^2-carboxylic acid] | 100 to 1000
3 | Cc1nn(C)c2c1-c1c(F)ccc3c(c(C(=O)O)n(C)c13)CCCOc1cc(cc3ccccc13)SCc1cc(nn1C(C)C)CSC2 (single isomer, unassigned) [Example 16B, (Z)-1^6-Fluoro-6^1-isopropyl-1^1,2^1,2^3-trimethyl-1^1H,2^1H,6^1H-10-oxa-4,8-dithia-1(7,3)-indola-2(4,5),6(3,5)-dipyrazola-9(3,1)-naphthalenacyclotridecaphane-1^2-carboxylic acid] | > 1000
4 | Cc1nn(C)c2c1-c1c(F)ccc3c(c(C(=O)O)n(C)c13)CCCOc1cc(cc3ccccc13)SCc1cc(nn1CC(C)C)CSC2 (single isomer, unassigned) [Example 17B, (Z)-1^6-Fluoro-6^1-isobutyl-1^1,2^1,2^3-trimethyl-1^1H,2^1H,6^1H-10-oxa-4,8-dithia-1(7,3)-indola-2(4,5),6(3,5)-dipyrazola-9(3,1)-naphthalenacyclotridecaphane-1^2-carboxylic acid] | 100 to 1000
5 | Cc1nn(C)c2c1-c1c(Cl)ccc3c(c(C(=O)O)n(C)c13)CCCOc1cc(cc3ccccc13)SCc1cc(nn1C)CSC2 (single isomer, unassigned) [Example 19A, (Z)-1^6-Chloro-1^1,2^1,2^3,6^1-tetramethyl-1^1H,2^1H,6^1H-10-oxa-4,8-dithia-1(7,3)-indola-2(4,5),6(3,5)-dipyrazola-9(3,1)-naphthalenacyclotridecaphane-1^2-carboxylic acid] | > 1000
6 | Cc1nn(C)c2c1-c1c(Cl)ccc3c(c(C(=O)O)n(C)c13)CCCOc1cc(cc3ccccc13)SCc1cc(nn1C)CSC2 (single isomer, unassigned) [Example 19B, (Z)-1^6-Chloro-1^1,2^1,2^3,6^1-tetramethyl-1^1H,2^1H,6^1H-10-oxa-4,8-dithia-1(7,3)-indola-2(4,5),6(3,5)-dipyrazola-9(3,1)-naphthalenacyclotridecaphane-1^2-carboxylic acid] | < 100
7 | Cn1nc2cc1CCc1cc(c3ccccc3c1)OCCCc1c(C(=O)O)n(C)c3c(c(Cl)ccc13)-c1c(nn3c1CCCC3)CNC2 (single isomer, unassigned) [Example 27A, (Z)-1^6-Chloro-1^1,6^1-dimethyl-2^4,2^5,2^6,2^7-tetrahydro-1^1H,6^1H-10-oxa-4-aza-2(3,2)-pyrazolo[1,5-a]pyridina-1(7,3)-indola-6(3,5)-pyrazola-9(3,1)-naphthalenacyclotridecaphane-1^2-carboxylic acid] | 100 to 1000
8 | Cn1nc2cc1CCc1cc(c3ccccc3c1)OCCCc1c(C(=O)O)n(C)c3c(c(Cl)ccc13)-c1c(nn3c1CCCC3)CNC2 (single isomer, unassigned) [Example 27B, (Z)-1^6-Chloro-1^1,6^1-dimethyl-2^4,2^5,2^6,2^7-tetrahydro-1^1H,6^1H-10-oxa-4-aza-2(3,2)-pyrazolo[1,5-a]pyridina-1(7,3)-indola-6(3,5)-pyrazola-9(3,1)-naphthalenacyclotridecaphane-1^2-carboxylic acid] | > 1000
